Assay results: US20180362449A1, “THE EXOCYST AS A NOVEL DRUG TARGET OF ENDOSIDIN2 AND APPLICATION AS A THERAPEUTIC” (The Regents of the University of California, priority 2015, published 2018)
“Also recorded” adds a separate entry of the source. One block for each compound: values may come before it.

What was measured:
[1] = molecular target: T1, EXO70A1 (amino acid residues 75-638) (Arabidopsis thaliana, UniProt Q9LZD3); experiment: STD-NMR of ES2 / analog8 with purified EXO70A1; assay type: binding; settings: EXO70A1, non-linear fit, read-out: Kd (mean ± SE)
T1 sequence (Q9LZD3 75-638): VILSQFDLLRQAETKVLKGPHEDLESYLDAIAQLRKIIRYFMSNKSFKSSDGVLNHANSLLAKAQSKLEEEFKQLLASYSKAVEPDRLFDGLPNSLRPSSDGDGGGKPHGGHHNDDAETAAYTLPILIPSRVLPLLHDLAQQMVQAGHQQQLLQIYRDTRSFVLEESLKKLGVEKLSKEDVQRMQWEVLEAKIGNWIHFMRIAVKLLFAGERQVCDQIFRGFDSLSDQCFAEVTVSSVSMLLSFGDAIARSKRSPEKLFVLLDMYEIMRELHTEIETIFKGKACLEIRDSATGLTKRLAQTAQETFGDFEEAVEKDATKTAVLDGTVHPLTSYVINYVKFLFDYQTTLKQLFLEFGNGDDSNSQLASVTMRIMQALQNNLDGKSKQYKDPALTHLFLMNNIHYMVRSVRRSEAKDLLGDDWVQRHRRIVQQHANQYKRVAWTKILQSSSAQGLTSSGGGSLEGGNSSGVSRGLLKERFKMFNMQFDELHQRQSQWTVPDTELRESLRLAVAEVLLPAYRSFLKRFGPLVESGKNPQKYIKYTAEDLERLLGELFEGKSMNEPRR

[2] = Stability of ES2 in water by 1H NMR; assay type: physicochemical; settings: 1H NMR over one week
Procedure: The ES2 molecule contains an N-acyl hydrazone group at its core, and could have the propensity for hydrolysis to 3-fluorobenzohydrazide and 4-hydroxy-3-iodo-5-methoxybenzaldehyde in aqueous solution (FIG. 10A). […] In addition, the activity of the two possible ES2 hydrolysis products in inducing PIN2 localization in late endosomal compartments was tested.

PIN2 localization = PIN2 localization in root cells of PIN2::PIN2:GFP seedlings; settings: for induction of PIN2 agglomerations / PIN2 localization: 40 μM, 2 hours
EXO70A1 = molecular target: T2, EXO70A1 (Arabidopsis thaliana, UniProt Q9LZD3); assay type: binding; settings: in comparison to Bio-680 matrix and biotin controls
T2 construct: protein extracts from 16 days old seedlings grown from normal 0.5×MS agar media; from tissue; host or cells: Arabidopsis seedlings (16 days old), 16,000×g supernatant
T2 sequence (Q9LZD3 1-638): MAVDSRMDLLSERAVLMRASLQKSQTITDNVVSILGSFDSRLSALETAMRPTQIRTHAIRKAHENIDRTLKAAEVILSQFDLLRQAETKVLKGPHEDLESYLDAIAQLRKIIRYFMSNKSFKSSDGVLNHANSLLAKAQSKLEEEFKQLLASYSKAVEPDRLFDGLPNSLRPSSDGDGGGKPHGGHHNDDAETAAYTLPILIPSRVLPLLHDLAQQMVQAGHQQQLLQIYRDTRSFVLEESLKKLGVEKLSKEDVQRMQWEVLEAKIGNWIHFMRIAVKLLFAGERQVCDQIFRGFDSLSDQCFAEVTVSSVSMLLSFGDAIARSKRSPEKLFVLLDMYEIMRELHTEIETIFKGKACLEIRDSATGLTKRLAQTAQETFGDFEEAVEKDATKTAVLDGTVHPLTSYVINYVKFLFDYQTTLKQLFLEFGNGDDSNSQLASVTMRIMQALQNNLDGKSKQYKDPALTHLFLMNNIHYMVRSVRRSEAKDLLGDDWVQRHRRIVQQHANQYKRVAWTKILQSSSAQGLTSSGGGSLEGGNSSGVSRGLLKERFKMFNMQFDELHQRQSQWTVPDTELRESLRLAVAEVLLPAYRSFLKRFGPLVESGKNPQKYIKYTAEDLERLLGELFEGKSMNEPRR

Kd [1]: 400 ± 170 µM
stability in water solution (hydrolysis) [2]: no hydrolysis products were observed
Compound: COc1cc(/C=N/NC(=O)c2cccc(F)c2)cc(I)c1O [ES2]
maximum feret diameter of PIN2-localized compartments (PIN2 localization; 40 μM ES2, 2 hours, light): 2.9 μm
minimal feret diameter of PIN2-localized compartments (PIN2 localization; 40 μM ES2, 2 hours, light): 0.4 μm
feret diameter of PIN2-localized compartments (mean±SD) (PIN2 localization; 40 μM ES2, 2 hours, light, N=391): 1.18±0.47 μm

Compound: COc1cc(/C=N/NC(=O)c2ccc(NC(=O)CCCC[C@@H]3SC[C@@H]4NC(=O)N[C@@H]43)c(F)c2)cc(I)c1O [Bio-688, N-(2-fluoro-4-((E)-2-(4-hydroxy-3-iodo-5-methoxybenzylidene)hydrazinecarbonyl)phenyl)-5-((3aS,4S,6aR)-2-oxohexahydro-1H-thieno[3,4-d]imidazol-4-yl)pentanamide]
pull down of EXO70A1 (western blot band intensity) (EXO70A1): more potent in pulling down EXO70A1
induction of PIN2 agglomerations / PIN2 localization (PIN2 localization): active; also recorded: induced PIN2 agglomerations

Compound: COc1cc(/C=N/NC(=O)c2ccc(N)c(F)c2)cc(I)c1O [Ana-688, 4-Amino-3-fluoro-N′-[(E)-(4-hydroxy-3-iodo-5-methoxyphenyl)methylidene]benzohydrazide]
induction of PIN2 agglomerations / PIN2 localization (PIN2 localization): induced PIN2 agglomerations

Compound: COc1cc(/C=N/NC(=O)c2ccc(NC(=O)CCCC[C@@H]3SC[C@@H]4NC(=O)N[C@@H]43)cc2)ccc1O [Bio-680, N-(4-((E)-2-(4-hydroxy-3-methoxybenzylidene)hydrazinecarbonyl)phenyl)-5-((3aS,4S,6aR)-2-oxohexahydro-1H-thieno[3,4-d]imidazol-4-yl)pentanamide]
induction of PIN2 agglomerations / PIN2 localization (PIN2 localization): inactive; also recorded: did not

Compound: COc1cc(/C=N/NC(=O)c2ccc(N)cc2)ccc1O [Ana-680, 4-Amino-N′-[(E)-(4-hydroxy-3-methoxyphenyl)methylidene]benzohydrazide]
induction of PIN2 agglomerations / PIN2 localization (PIN2 localization): did not
